Source: PubChem BioAssay (NCI)
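Interpolation was linear, between the two tested concentrations surrounding the appropriate level; five concentrations were tested over 48 hours in 96-well plates. GI50: concentration for 50% inhibition of growth. TGI is the concentration that stops growth completely.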

What was measured:
Test in all cases: growth of human tumour cells (NCI), 48 h
OVCAR-5 ovarian = tested on: OVCAR-5 ovarian
UO-31 renal = tested on: UO-31 renal
HOP-18 NSCLC = tested on: HOP-18 NSCLC
LXFL 529 NSCLC = tested on: LXFL 529 NSCLC
HL-60(TB) leukemia = tested on: HL-60(TB) leukemia
HT29 colon = tested on: HT29 colon
MALME-3M melanoma = tested on: MALME-3M melanoma
M19-MEL melanoma = tested on: M19-MEL melanoma
DLD-1 colon = tested on: DLD-1 colon
SK-MEL-5 melanoma = tested on: SK-MEL-5 melanoma
NCI/ADR-RES ovarian = tested on: NCI/ADR-RES ovarian
MCF7 breast = tested on: MCF7 breast

| SMILES | TGI (OVCAR-5 ovarian) | TGI (UO-31 renal) | TGI (HOP-18 NSCLC) | TGI (LXFL 529 NSCLC) | TGI (HL-60(TB) leukemia) | TGI (HT29 colon) | TGI (MALME-3M melanoma) | TGI (M19-MEL melanoma) | TGI (DLD-1 colon) | TGI (SK-MEL-5 melanoma) | TGI (NCI/ADR-RES ovarian) | TGI (MCF7 breast) | GI50 (OVCAR-5 ovarian) | GI50 (UO-31 renal) | GI50 (HL-60(TB) leukemia) | GI50 (HT29 colon) | GI50 (MALME-3M melanoma) | GI50 (NCI/ADR-RES ovarian) | GI50 (MCF7 breast) | GI50 (SK-MEL-5 melanoma) |
| --- | --- | --- | --- | --- | --- | --- | --- | --- | --- | --- | --- | --- | --- | --- | --- | --- | --- | --- | --- | --- |
| CCN(CC)CCCC(C)NC(=O)c1ccc2c(c1)C(=O)c1ccccc1C2=O (centres undefined) | 34.2 µM | 69 µM | > 100 µM | 66.9 µM | 34.2 µM | 53 µM | 27.6 µM | 32 µM | 45.4 µM | 28.4 µM | – | – | – | – | – | – | – | – | – | – |
| CC(C)C(=O)/C=C/c1ccc(Cl)c(Cl)c1 | 36.8 µM | 27.2 µM | 23.5 µM | 40.2 µM | 47 µM | 43.8 µM | – | 32.3 µM | 34.2 µM | 28.8 µM | – | – | – | – | – | – | – | – | – | – |
| CCCCCCC(C)OC(=O)/C=C(\CC(=O)OC(C)CCCCCC)C(=O)OC(C)CCCCCC (centres undefined) | > 100 µM | > 100 µM | – | > 100 µM | > 100 µM | > 100 µM | > 100 µM | > 100 µM | > 100 µM | > 100 µM | – | – | – | – | – | – | – | – | – | – |
| O=C1c2ccccc2C(=O)c2c(O)ccc(O)c21 | > 100 µM | > 100 µM | – | > 100 µM | > 100 µM | > 100 µM | > 100 µM | 69.2 µM | > 100 µM | > 100 µM | – | – | – | – | – | – | – | – | – | – |
| CC1C(=O)O[C@H]2C1CC[C@@]1(C)[C@H](O)CC[C@@]13C[C@]2(O)OO3 (some centres undefined) | > 100 µM | > 100 µM | > 100 µM | > 100 µM | > 100 µM | > 100 µM | > 100 µM | > 100 µM | > 100 µM | > 100 µM | – | – | – | – | – | – | – | – | – | – |
| CCOP(=O)(OCC)C1=NC=CC=CC1n1c(-c2ccccc2)nn(CC)c1=O (centres undefined) | – | – | > 100 µM | > 100 µM | > 100 µM | > 100 µM | > 100 µM | > 100 µM | > 100 µM | > 100 µM | – | – | – | – | – | – | – | – | – | – |
| CC(NC(C#N)CC12CC3CC(CC(C3)C1)C2)c1ccccc1 (centres undefined) | > 100 µM | > 100 µM | – | – | 42.3 µM | > 100 µM | > 100 µM | – | – | > 100 µM | > 100 µM | > 100 µM | – | – | – | – | – | – | – | – |
| CSc1nc2c(=O)n(-c3ccccc3)c(=S)n(-c3ccccc3)c2s1 | > 100 µM | > 100 µM | – | – | > 100 µM | > 100 µM | > 100 µM | – | – | > 100 µM | > 100 µM | > 100 µM | – | – | – | – | – | – | – | – |
| Clc1nc(Cl)c(CBr)c(Cl)n1 | 15 µM | 9.01 µM | – | – | > 100 µM | 32.9 µM | 28.7 µM | – | – | 8.46 µM | > 43.2 µM | 26 µM | – | – | – | – | – | – | – | – |
| CC1(CC2=C(C(=O)NCCO[Si](C)(C)C(C)(C)C)C3(OCCO3)C2=O)OCCO1 | > 100 µM | > 100 µM | – | – | > 100 µM | > 100 µM | 72.7 µM | – | – | > 100 µM | > 100 µM | > 100 µM | – | – | – | – | – | – | – | – |
| Clc1ncc(Cl)c(Cl)n1 | 34.2 µM | 7.17 µM | – | – | 2.36 µM | 3.02 µM | 3.75 µM | – | – | 12.7 µM | 20.5 µM | 4.8 µM | – | – | – | – | – | – | – | – |
| O=C1ON=C2C3CC4CC12CC1(C3)C(=O)ON=C41 | > 100 µM | > 100 µM | – | – | > 100 µM | > 100 µM | > 100 µM | – | – | > 100 µM | > 100 µM | > 100 µM | – | – | – | – | – | – | – | – |
| COC(=O)c1ccccc1C1CN=NC12Cc1cccc(C)c1C2=O (centres undefined) | > 100 µM | 83.9 µM | – | – | 72.1 µM | > 100 µM | > 100 µM | – | – | > 100 µM | 45.7 µM | 91.9 µM | – | – | – | – | – | – | – | – |
| Nn1c(Cc2ccccc2)n[nH]c1=O | > 100 µM | > 100 µM | – | – | > 100 µM | > 100 µM | > 100 µM | – | – | > 100 µM | > 100 µM | > 100 µM | – | – | – | – | – | – | – | – |
| CS(=O)(=O)OCCCOS(C)(=O)=O | > 100 µM | > 100 µM | > 100 µM | > 100 µM | > 100 µM | > 100 µM | > 100 µM | > 100 µM | > 100 µM | > 100 µM | – | – | – | – | – | – | – | – | – | – |
| C(=C\c1cc(-c2ccc3ccccc3n2)nc2ccc3ccccc3c12)/c1ccc2ccccc2n1 | > 100 µM | > 100 µM | – | – | > 100 µM | > 100 µM | > 100 µM | – | – | > 100 µM | > 100 µM | > 100 µM | – | – | – | – | – | – | – | – |
| CCOC(=O)Cn1c(=O)c2cc(-c3ccccc3)cc3c(Cl)nc4c(OC)c(OC)cc1c4c32 | > 100 µM | 43.8 µM | – | – | 27.4 µM | 48.1 µM | 22 µM | – | – | > 59.9 µM | 56.5 µM | 22.7 µM | – | – | – | – | – | – | – | – |
| Oc1cccc(-c2cn3cc(C(F)(F)F)ccc3n2)c1 | > 100 µM | > 100 µM | – | – | > 100 µM | 60.8 µM | > 100 µM | – | – | 56.5 µM | 78.1 µM | > 100 µM | – | – | – | – | – | – | – | – |
| Nc1ccc(Oc2ccc(C34CC5CC6C3CC3CC4C(C5)C6(c4ccc(Oc5ccc(N)c(O)c5)cc4)C3)cc2)cc1O | > 39.5 µM | 11.2 µM | – | – | 3.27 µM | > 34.7 µM | 30.4 µM | – | – | 9.24 µM | > 92.8 µM | > 42.3 µM | – | – | – | – | – | – | – | – |
| CCc1nc2ccc(C(F)(F)F)cc2[nH]c1=O | > 100 µM | > 100 µM | – | – | > 100 µM | > 100 µM | > 100 µM | – | – | > 100 µM | > 100 µM | > 100 µM | – | – | – | – | – | – | – | – |
| C=C1C(=O)O[C@@H]2[C@H](O)[C@@H](C)[C@@H]3C=CC(=O)[C@@]3(C)[C@H](OC(=O)C=C(C)C)[C@H]12 | 4.67 µM | 7.23 µM | 3.09 µM | – | 0.412 µM | 3.82 µM | 1.25 µM | 2.7 µM | 0.878 µM | 3.78 µM | 6.42 µM | 1.81 µM | – | – | – | – | – | – | – | – |
| Oc1ccc(C#CCOc2ccccc2)cc1CNCCN(Cc1ccccn1)Cc1ccccn1 | 3.72 µM | 2.5 µM | – | – | 4.21 µM | 12.6 µM | 3.31 µM | – | – | 2.84 µM | 6.68 µM | 4.43 µM | 1.18 µM | 1.02 µM | 1.19 µM | 2.54 µM | 1.63 µM | 1.83 µM | 1.07 µM | 1.49 µM |
| O=[N+]([O-])c1ccc2c(c1)c(S(=O)(=O)O)cc1nonc12 | > 100 µM | > 100 µM | – | – | > 100 µM | > 100 µM | > 100 µM | – | – | > 100 µM | > 100 µM | > 100 µM | – | – | – | – | – | – | – | – |
